Reference: patent US11213506B2, “Combination therapy for the treatment or prevention of tumours” (QBIOTICS PTY LTD, priority 2017, dated 2022)

Key:
[1] = test system: A431 cells; test: ATP release assay; format: cell-based, human; conditions: both concentrations (500 and 300 μM), within 60 minutes
Method: (§1) A431 (human epidermoid carcinoma), MM649 (human melanoma) and B16-OVA (B16-F10 mouse melanoma cell line stably transfected with chicken ovalbumin) were cultured in RPMI-1640, 10% FCS (complete medium) at 37° C., 5% CO2 in a humidified incubator. BMDCs were cultured in R10 media (RPMI, 10% FCS, 2 mM glutamine, 50 μM beta-mercaptoethanol, Pen/Strep). All cell lines used in this study were confirmed as mycoplasma negative using MycoAlert (Lonza). STR profiling was also performed to confirm the identity of the human cell lines used.
(§2) Cell lines were plated at a density of 10,000 cells per well into clear 96-well plates (Corning, #3595; 100 μl of complete media) and the resultant plates incubated overnight as previously detailed. The following day, media was aspirated from each well and 50 μl of fresh medium was inserted. Stock solutions of Compounds 1, 2, 3 and 4 were diluted to 2× final assay concentration (1 mM and 600 μM) and 50 μl of these dilutions added to the required wells. Ethanol only control solutions were also compiled and administered. At the indicated timepoints, 80 μl of media was removed, centrifuged at 1,200 rpm for 4 mins to pellet cell debris and 50 μl assayed for ATP using a bioluminescence based ATP assay kit (FLAA, Sigma-Aldrich). Relative luminescence units were recorded for each sample using a Hybrid Synergy H4 plate reader (BioTek).

[2] = test system: B16-OVA cells; test: ATP release assay; format: cell-based, mouse; conditions: both concentrations (500 and 300 μM), within 60 minutes
Method: as §1, §2

[3] = test system: B16-OVA cells; test: HMGB1 release assay (ELISA); format: cell-based, mouse; conditions: 120 minutes
Method: as §1
Cell lines (A431, MM649 and B16-OVA) were plated into T75 cm^2 flasks (Nunc) in 10 ml of complete media and cultured at 37° C., 5% CO2 until they reached 90% confluency. Compounds 1, 2, 3 and 4 were diluted in 5 ml of identical media to a final concentration of 500 and 300 μM and then administered to the cells. Several flasks were prepared such that a kinetic curve of HMGB1 release in response to drug treatment could be established. Ethanol only controls were also generated. At the required timepoint, media was removed from the flask into a 10 ml polypropylene tube that was placed on ice for 5 mins. […] OD450 nm values were determined using a Hybrid Synergy H4 plate reader (BioTek). Absorbance values from drug treated samples were normalized to vehicle treated samples to determine the fold increase in HMGB1 release in response to epoxytigliane treatment.

[4] = test system: A431 cells; test: Calreticulin externalization assay (flow cytometry); format: cell-based, human; conditions: within 60 minutes of treatment
Method: (§3) Calreticulin externalization was determined as previously detailed (Gomez-Cadena et al. 2016). Briefly, cells (A431, MM649, B16-OVA) cultured in complete medium at 37° C., 5% CO2 were detached via trypsinisation, centrifuged at 1,200 rpm and washed ×2 with fresh medium. After an additional round of centrifugation, the resultant cell pellet was resuspended at a concentration of 1×10^6 cells/ml, after which epoxytigliane was added to a final concentration of 500 or 300 μM. Ethanol only controls were also performed. Cell suspensions were incubated at 37° C., 5% CO2 and at the indicated timepoints, 200 μl of sample was removed and incubated with LIVE/DEAD fixable far red stain for 5 mins on ice. Following this, cells were pelleted at 1,200 rpm for 4 mins and washed ×1 with PBS. 500 μl of PBS, 0.25% formaldehyde was then added to each pellet to perform a light fixation without compromising plasma membrane integrity. […]
(§4) Samples were gated by FSC-H v FSC-A first to identify single cells, after which the LIVE/DEAD stain (Ex: 640 nm, Em: 670/14) negative (intact cell) population was analysed for green fluorescence (Ex: 488 nm, Em: 530/30; calreticulin externalization). Mean fluorescence intensity values were subsequently determined and graphed versus time.

[5] = test system: MM649 cells; test: as above; format: cell-based, human; conditions: within 60 minutes of treatment
Method: as §3, §4

Structure (SMILES): C/C=C(\C)C(=O)O[C@@H]1[C@@H](C)[C@@]2(O)[C@H]([C@@H]3C(C)(C)[C@]13OC(=O)[C@@H](C)CC)[C@@H]1O[C@]1(CO)[C@@H](O)[C@]1(O)C(=O)C(C)=C[C@H]12 [Compound 1, 12-tigloyl-13-(2-methylbutanoyl)-6,7-epoxy-4,5,9,12,13,20-hexahydroxy-1-tiglien-3-one]
- ATP release [1]: significant release of ATP
- ATP release [2]: significant release of ATP
- fold increase in HMBG1 release, normalised to vehicle treated cells [3]: greater than 3 fold
- calreticulin externalisation (mean fluorescence intensity) [4]: significant increases in mean fluorescence intensity
- calreticulin externalisation (mean fluorescence intensity) [5]: significant increases in mean fluorescence intensity
